Patent publication US20160083776A1, “Methods for Measuring Polymerase Activity Useful for Sensitive, Quantitative Measurements of Any Polymerase Extension Activity and for Determining the Presence of Viable Cells” (Zeus Scientific, Inc., priority 2012, published 2016)

Key:
Assay type in all cases: biochemical
[1] = tested on: E. coli-derived DNA polymerase activity; assay: Bead lysis-coupled DPE-PCR, ddCTP substitution, E. coli lysate; conditions: 50 μM ddCTP substituted for dCTP, compared to standard reaction mix; crude bead mill lysate
Description: (§1) FIG. 5 illustrates that detection of bacteria by DPE-PCR is blocked by ddCTP. 5 μL of E. coli suspension were added to bead lysis-coupled DNA polymerase assays comprised of a dNTP mix containing either 50 μM dCTP or 50 μM ddCTP. DPE-PCR curves representing E. coli-derived DNA polymerase activity is presented. Plots were generated using the average qPCR Ct values from triplicate reactions at the indicated conditions. ddCTP termination and dCTP rescue experiments were performed for S. aureus exactly as described above for E. coli.
(§2) S. aureus and E. coli cultures were grown to an OD600 of 1.0±0.2 (approximately 1×10^9 cfu/mL.) For each organism, 1 mL of culture was pelleted and washed three times in T.E. Bacterial suspensions were serially diluted in T.E., and 5 μL of each stock were added to bead mill lysis tubes containing 50 μL DNA polymerase extension reaction mixture (see above for composition). A titration curve of 1×10^5 to […] cfu/reaction was performed in triplicate for each organism, including triplicate reactions without bacterial suspension.
(§3) After the addition of 5 μL bacterial stock, reaction tubes were bead milled for 6 min. at 2800 rpm using a digital Vortex Genie equipped with a disrupter head (Scientific Industries). Immediately after disruption, sample tubes were placed at 37° C. for 20 minutes. […]

[2] = tested on: S. aureus DNA polymerase extension activity; assay: Bead lysis-coupled DPE-PCR, ddCTP substitution, S. aureus lysate; conditions: 50 μM ddCTP substituted for dCTP, compared to standard reaction mix; crude bead mill lysate
Description: as §1, §2, §3

[3] = target: T1, DNA polymerase I (Escherichia coli, UniProt P00582); assay: DPE-PCR assay, ddCTP termination of purified DNA polymerase extension activity; conditions: 50 μM ddCTP substituted for dCTP in the extension reaction mix; 37° C., 20 minutes
T1 construct: purchased New England Biolabs MO209
T1 sequence (P00582 whole entry): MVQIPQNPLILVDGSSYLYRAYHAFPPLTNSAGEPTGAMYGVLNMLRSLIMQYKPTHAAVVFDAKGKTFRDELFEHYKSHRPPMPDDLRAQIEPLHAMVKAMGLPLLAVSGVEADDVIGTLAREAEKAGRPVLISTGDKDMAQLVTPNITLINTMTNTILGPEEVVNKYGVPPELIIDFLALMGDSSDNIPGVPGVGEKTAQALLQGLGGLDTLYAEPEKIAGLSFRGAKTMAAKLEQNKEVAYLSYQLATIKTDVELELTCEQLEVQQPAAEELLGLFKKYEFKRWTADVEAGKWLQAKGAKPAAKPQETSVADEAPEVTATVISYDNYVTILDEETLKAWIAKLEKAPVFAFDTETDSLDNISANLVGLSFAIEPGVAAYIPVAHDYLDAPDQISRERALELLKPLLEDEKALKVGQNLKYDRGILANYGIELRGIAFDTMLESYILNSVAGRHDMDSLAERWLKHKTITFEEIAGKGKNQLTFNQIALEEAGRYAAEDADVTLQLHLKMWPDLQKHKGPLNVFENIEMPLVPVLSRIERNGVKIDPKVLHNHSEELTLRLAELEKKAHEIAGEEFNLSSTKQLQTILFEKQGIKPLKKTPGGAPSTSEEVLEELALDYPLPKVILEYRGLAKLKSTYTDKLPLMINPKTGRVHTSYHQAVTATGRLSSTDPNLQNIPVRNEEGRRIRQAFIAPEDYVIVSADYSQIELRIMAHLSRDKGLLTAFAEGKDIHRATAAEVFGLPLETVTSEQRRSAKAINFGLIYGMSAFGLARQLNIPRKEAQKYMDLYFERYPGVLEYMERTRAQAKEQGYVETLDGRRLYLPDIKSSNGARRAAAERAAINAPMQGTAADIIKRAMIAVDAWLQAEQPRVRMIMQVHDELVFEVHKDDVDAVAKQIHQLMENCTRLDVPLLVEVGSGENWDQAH
Description: DNA Pol I (NEB cat# MO209L), Klenow (NEB cat# MO210S) and Klenow exo(−) (NEB cat# MO212S) were diluted to the indicated U/μL stock in sterile T.E. pH 8.0. To begin, 2 μL of DNA polymerase stock at each concentration were placed into a 50 μL DNA polymerase extension reaction mixture containing the following components: 50 μM dNTP, 20 mM Tris pH 8.0, 10 mM Ammonium sulfate, 10 mM Potassium chloride, 2 mM Magnesium sulfate, 1% BSA, 0.1% Triton X-100, 0.1% Tween 20, and 0.001 μM pre-annealed DNA substrate (described above. Two micro-liters of T.E. (without DNA polymerase) was routinely added to an additional tube containing complete DNA polymerase extension reaction mixture and is referred to as a “No Input Control” (NIC). Reactions containing DNA polymerase (or No Input Controls) were vortexed briefly and placed at 37° C. for 20 minutes. After 20 minutes, 3 μL of each reactions containing purified DNA polymerase were immediately placed into a qPCR reaction (see below for qPCR conditions).
DNA polymerase extension reactions were prepared as described above with a 50 μM [dATP, dGTP, dTTP] mixture supplemented with either 50 μM dCTP or 50 μM ddCTP (Affymetrix #77332.) 50 μL DNA polymerase extension reactions with a 50 μM [dATP, dGTP, dTTP] mixture, supplemented with either dCTP or ddCTP, were spiked with 2 μL of a 1×10^−9 U/μL stock of DNA polymerase I (New England Biolabs # MO209). […]

Nc1ccn([C@H]2CC[C@@H](COP(=O)(O)OP(=O)(O)OP(=O)(O)O)O2)c(=O)n1 [ddCTP, 2′,3′-Dideoxycytidine-5′-Triphosphate]
DPE-PCR signal derived from E. coli cfu spikes [1]: blocked the generation of signal | DPE-PCR signal derived from S. aureus cfu spikes [2]: blocked the generation of signal | DPE-PCR assay signal generated by DNA polymerase I [3]: eliminates signal
